In the assay the test system is WI26-VA4 cells. Description: Doxorubicin cytotoxicity by MTT cell viability assay, liposomes with or without pre-illumination. The assay is classed as cell-based. The conditions noted are these: total dose of 1 μM; co-incubated with cells for 4 hours; evaluated 48 hours after treatment; no illumination. The protocol:
Studies were performed on the fluorescent marker- or drug-loaded liposomes described above diluted to a concentration of 0.2 mM by total lipids with or without the photosensitizer-peptide conjugate described above at 1:80 to 1:5 molar ratio to total lipids. Optionally, samples were also supplied with antioxidants/reducing agents or other additional substances at different concentrations. Samples were either illuminated as described below or kept for the same time period under different control conditions.
Illumination of prepared liposomes with or without photosensitizer-peptide conjugate was mostly preformed using a setup that included a halogen utility lamp, a 2-inch thick flowing water filter to cut infrared irradiation above 950 nm and a red optical cast plastic filter (EdmundOptics) to cut off light irradiation below 620 nm (FIG. 1). […]
Release of the drug substance (doxorubicin hydrochloride) from the liposomes was done by enhancement of its biological action (cytotoxicity) on cultured WI26-VA4 cells after pre-illuminating liposomes with or without photosensitizer-peptide conjugate in comparison to liposomes at the same dose without pre-illumination, co-incubated with cells for 4 hours. The extent of cell death was evaluated 48 hours after treatment using a MTT cell viability assay.

Structures can show the parent of a compound that is named as a salt.

On to `COc1cccc2c1C(=O)c1c(O)c3c(c(O)c1C2=O)C[C@@](O)(C(=O)CO)C[C@@H]3O[C@H]1C[C@H](N)[C@H](O)[C@H](C)O1` [doxorubicin hydrochloride], for which the cell death result is reported as “about 60%”.

The values are drawn from patent US11154619B2, “Liposomal compositions with light illumination-induced drug release” (Creighton University, priority 2017, dated 2021).
